Source: PMC8572102 (Pharmacogenomics and Personalized Medicine, 2021)
Where two headings read alike, the source gives them in different places.

How the values were obtained:
CYP2C19 and CYP3A4 = conditions: major metabolite of voriconazole, in vitro studies; cited from earlier work
[1] = format: in vivo, human (Chinese patients)

Frequency of supra-therapeutic levels (> 5µg/mL) ([1]; CYP2C19 intermediate metabolizer patients) [%]	Frequency of supra-therapeutic levels (> 5µg/mL) ([1]; CYP2C19 normal metabolizer patients) [%]	Frequency of supra-therapeutic levels (> 5µg/mL) ([1]; CYP2C19 poor metabolizer patients) [%]	Median trough concentration of voriconazole in sub-group analysis ([1]; PM/PPIs users group, excluding cases administered omeprazole or esomeprazole)	concentration at 12 h ([1]; human, plasma, 200 mg, Voriconazole trough concentration, median (IQR), all patients, 250 samples from 114 patients, voriconazole 200mg 12hrly, steady state) [ng/mL]	Compound	Share of all metabolites (CYP2C19 and CYP3A4)
					C[C@@H](c1nc[n+]([O-])cc1F)[C@](O)(Cn1cncn1)c1ccc(F)cc1F [voriconazole N-oxide]	about 74%
13.5	15.4	47.8	below supra-therapeutic levels	2100	C[C@@H](c1ncncc1F)[C@](O)(Cn1cncn1)c1ccc(F)cc1F [voriconazole]	
